A short description of series [1]: treatment of premenstrual syndrome and/or premenstrual dysphoric disorder (reduction of symptoms). It counts as in vivo. The settings on record: compared with other compounds, particularly other magnesium salts (like magnesium oxide).
A short description of series [2]: stability over time of dihydrate versus anhydrous form. In kind it is physicochemical. To be noted: compared to non-dihydrate (anhydrous) magnesium N-acetyl-taurinate.

For magnesium N-acetyl-taurinate, the “effectiveness (reduction of symptoms) in the treatment of premenstrual syndrome and/or premenstrual dysphoric disorder” value in series [1] is given as “more effective (reduction of symptoms) than the other compounds”.

Regarding magnesium N-acetyl-taurinate dihydrate, the stability over time result in series [2] is “increased as compared to non-dihydrate magnesium N-acetyl-taurinate”.
